Values of other authors, collected in patent US20240390332A1, “Combination treatment and/or prevention of renal diseases and/or hypertension in non-human mammals comprising one or more SGLT-2 inhibitors and telmisartan” (BOEHRINGER INGELHEIM VETMEDICA GMBH, priority 2023, published 2024).

System: human patients suffering from diabetes mellitus type II
Details: baseline to week 12, empagliflozin 10 mg and 25 mg groups vs placebo

## OC[C@H]1O[C@@H](c2ccc(Cl)c(Cc3ccc(O[C@H]4CCOC4)cc3)c2)[C@H](O)[C@@H](O)[C@@H]1O [empagliflozin, Empagliflozin]
  mean 24-hour systolic BP, placebo-subtracted mean difference: up to −4.16 mmHg
